From patent publication EP4800015A1, “AZABICYCLO DERIVATIVE AND PREPARATION METHOD THEREFOR, AND USE” (Zhejiang Hisun Pharmaceutical Co., Ltd., priority 2023, dated 2025)

Columns and labels:
recombinant human WRN = target: T1, recombinant human WRN (Homo sapiens, UniProt Q14191); assay: Inhibition of WRN enzyme activity (ATPase), ADP-Glo Kinase Assay; assay type: biochemical; settings: WRN protein 5 nM, Flap 0.1 nM, ATP 30 µM; read-out: IC50
T1 construct: purchased BPS 101264
Method in brief: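 ATPase activity was measured by ADP-Glo luminescence after a 10-min room-temperature reaction with 30 µM ATP and 0.1 nM Flap26 oligonucleotide substrate. The 5 nM WRN had first been exposed to compound (0.004–1000 nM) for 15 min in pH 7.5 Tris buffer with 2 mM MgCl2. IC50 values came from log-concentration regression against the DMSO control.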

SW48 cells = assay: Inhibition of SW48 cell proliferation (CellTiter-Glo); assay type: cell-based; settings: Homo sapiens; SW48 cells (MSI-H), 120 hours
Protocol: The following method was used to determine the effect of the compounds of the present disclosure on SW48 cell proliferation. SW48 cells (MSI-H cells) were purchased from American ATCC cell bank and cultured in Leibovitz's L-15 medium (Gibco, catalog No. 11415064) containing 10% fetal bovine serum, 100 U penicillin, and 100 µg/mL streptomycin. Cell viability was determined by CellTiter-Glo® Luminescent Cell Viability Assay kit (Promega, catalog No. G7573).
The experiment was performed according to the steps of the kit manual, which is briefly described as follows: test compounds were first dissolved in DMSO to prepare 10 mM stock solutions, and then diluted with medium to prepare test samples, with final compound concentrations ranging from 10000 nM to 1.52 nM. Cells in logarithmic growth phase were seeded into 96-well cell culture plates at a density of 500 cells per well and cultured overnight at 37 °C in an air incubator, then test compounds were added and cultivation continued for 120 hours. After the cultivation was completed, 40 µL of CellTiter-Glo detection reagent was added to each well, shaken for 5 minutes, and then left to stand for 10 minutes. Luminescence values of each well were read on a microplate reader using Luminescence mode. The percentage inhibition at each concentration point was calculated by comparison with the control group (0.1% DMSO), and then IC50 values for the compounds for inhibition of cell proliferation were obtained using nonlinear regression analysis of compound concentration logarithm versus inhibition rate in GraphPad Prism 9 software, as shown in Table 2.
The IC50 value results of the compounds of the present disclosure are represented by A, wherein "A" indicates 1 nM < IC50 ≤ 100 nM. Table 2 IC50 data for inhibition of SW48 cell proliferation by the compounds of the present disclosure

RL95-2 cells = assay: Inhibition of RL95-2 cell proliferation (CellTiter-Glo); assay type: cell-based; settings: Homo sapiens; RL95-2 cells (MSI-H), 120 hours
Method in brief: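 Proliferation IC50 derived by nonlinear regression of % inhibition against log concentration, with 0.1% DMSO wells as reference. CellTiter-Glo luminescence was read after 120 h of compound exposure (10000 nM down to 1.52 nM final) at 37 °C. MSI-H RL95-2 cells seeded at 500/well in DMEM/F12 with 10% FBS the day before.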

T1 sequence (Q14191 whole entry): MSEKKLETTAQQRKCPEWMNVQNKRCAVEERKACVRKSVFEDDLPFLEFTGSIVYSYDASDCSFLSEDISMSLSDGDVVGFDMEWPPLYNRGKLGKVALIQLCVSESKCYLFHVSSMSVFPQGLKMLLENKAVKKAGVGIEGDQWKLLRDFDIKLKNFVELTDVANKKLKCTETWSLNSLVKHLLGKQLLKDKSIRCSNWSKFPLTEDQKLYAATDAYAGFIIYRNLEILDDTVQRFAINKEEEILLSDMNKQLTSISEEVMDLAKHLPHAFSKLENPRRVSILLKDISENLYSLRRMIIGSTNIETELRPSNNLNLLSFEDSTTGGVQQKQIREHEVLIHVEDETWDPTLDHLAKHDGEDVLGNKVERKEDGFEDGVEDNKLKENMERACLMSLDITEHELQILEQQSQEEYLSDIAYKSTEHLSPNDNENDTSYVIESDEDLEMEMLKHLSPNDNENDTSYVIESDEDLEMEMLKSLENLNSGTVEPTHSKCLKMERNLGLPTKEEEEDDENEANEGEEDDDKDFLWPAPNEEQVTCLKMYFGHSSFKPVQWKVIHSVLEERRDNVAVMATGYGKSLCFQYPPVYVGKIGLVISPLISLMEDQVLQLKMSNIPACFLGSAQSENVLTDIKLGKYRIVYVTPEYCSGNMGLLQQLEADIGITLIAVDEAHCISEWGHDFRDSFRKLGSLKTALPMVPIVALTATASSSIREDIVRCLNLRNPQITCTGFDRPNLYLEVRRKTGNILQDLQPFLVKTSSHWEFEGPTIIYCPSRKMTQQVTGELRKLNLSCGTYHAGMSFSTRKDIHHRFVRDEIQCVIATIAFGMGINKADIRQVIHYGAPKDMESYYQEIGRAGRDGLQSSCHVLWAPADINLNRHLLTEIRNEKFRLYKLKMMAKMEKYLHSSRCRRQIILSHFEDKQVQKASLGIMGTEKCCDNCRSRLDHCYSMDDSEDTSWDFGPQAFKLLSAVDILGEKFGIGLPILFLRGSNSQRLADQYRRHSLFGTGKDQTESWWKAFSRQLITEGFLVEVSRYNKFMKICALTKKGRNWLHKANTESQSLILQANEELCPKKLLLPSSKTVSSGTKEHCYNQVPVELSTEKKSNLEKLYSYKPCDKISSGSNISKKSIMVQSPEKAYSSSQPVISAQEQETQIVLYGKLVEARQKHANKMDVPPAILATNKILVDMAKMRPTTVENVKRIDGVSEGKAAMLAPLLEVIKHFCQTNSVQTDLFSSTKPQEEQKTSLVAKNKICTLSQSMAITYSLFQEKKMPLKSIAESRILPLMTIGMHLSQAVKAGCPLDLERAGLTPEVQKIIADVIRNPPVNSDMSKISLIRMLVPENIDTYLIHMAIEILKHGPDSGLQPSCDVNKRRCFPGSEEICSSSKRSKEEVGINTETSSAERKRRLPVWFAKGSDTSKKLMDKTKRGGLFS

Row | Compound | IC50 (recombinant human WRN) | IC50 (SW48 cells) | IC50 (RL95-2 cells)
1 | CCc1c(N2CCN(C(=O)c3ncnc(C)c3O)CC2)c(=O)n2nc(C3=CC4CCC3C4)nc2n1CC(=O)Nc1ccc(S(F)(F)(F)(F)F)cc1 (stereo not drawn) [Example 118, 2-(2-(bicyclo[2.2.1]hept-2-en-2-yl)-5-ethyl-6-(4-(5-hydroxy-6-methylpyrimidine-4-carbonyl)piperazin-1-yl)-7-oxo-[1,2,4]triazolo[1,5-a]pyrimidin-4(7H)-yl)-N-(4-(pentafluoro-λ^6-sulfaneyl)phenyl)acetamide] | 1 to 100 nM | 1 to 100 nM | 1 to 100 nM
2 | CCc1c(N2CCN(C(=O)c3ncnc(C)c3O)CC2)c(=O)n2nc(-c3cc4ccccc4o3)nc2n1CC(=O)Nc1ccc(C(F)(F)F)cc1Cl [Example 19, 2-(2-(benzofuran-2-yl)-5-ethyl-6-(4-(5-hydroxy-6-methylpyrimidine-4-carbonyl)piperazin-1-yl)-7-oxo-[1,2,4]triazolo[1,5-a]pyrimidin-4(7H)-yl)-N-(2-chloro-4-(trifluoromethyl)phenyl)acetamide] | < 1 nM | 1 to 100 nM | 1 to 100 nM
3 | CCc1c(N2CCN(C(=O)c3ncnc(C)c3O)CC2)c(=O)n2nc(C3=CC4CC(=O)CC4C3)nc2n1CC(=O)Nc1ccc(C(F)(F)F)cc1Cl (stereo not drawn) [Example 17, N-(2-chloro-4-(trifluoromethyl)phenyl)-2-(5-ethyl-6-(4-(5-hydroxy-6-methylpyrimidine-4-carbonyl)piperazin-1-yl)-7-oxo-2-(5-oxo-1,3a,4,5,6,6a-hexahydropentalen-2-yl)-[1,2,4]triazolo[1,5-a]pyrimidin-4(7H)-yl)acetamide] | 1 to 100 nM | 1 to 100 nM | 1 to 100 nM
4 | CCc1c(N2CCN(C(=O)c3ncnc(C)c3O)CC2)c(=O)n2nc(-c3ccc4ccsc4c3)nc2n1CC(=O)Nc1ccc(C(F)(F)F)cc1Cl [Example 55, 2-(2-(benzo[b]thiophen-6-yl)-5-ethyl-6-(4-(5-hydroxy-6-methylpyrimidine-4-carbonyl)piperazin-1-yl)-7-oxo-[1,2,4]triazolo[1,5-a]pyrimidin-4(7H)-yl)-N-(2-chloro-4-(trifluoromethyl)phenyl)acet amide] | 1 to 100 nM | 1 to 100 nM | 1 to 100 nM
5 | CCc1c(N2CCN(C(=O)c3ncnc(C)c3O)CC2)c(=O)n2nc(-c3ccc4c(c3)CCO4)nc2n1CC(=O)Nc1ccc(S(F)(F)(F)(F)F)cc1 [Example 86, 2-(2-(2,3-dihydrobenzofuran-5-yl)-5-ethyl-6-(4-(5-hydroxy-6-methylpyrimidine-4-carbonyl)piperazin-1-yl)-7-oxo-[1,2,4]triazolo[1,5-a]pyrimidin-4(7H)-yl)-N-(4-(pentafluoro-λ^6-sulfaneyl)phenyl)acetamide] | 1 to 100 nM | 1 to 100 nM | 1 to 100 nM
6 | CCc1c(N2CCN(C(=O)c3ncnc(C)c3O)CC2)c(=O)n2nc(-c3cnc4[nH]ccc4c3)nc2n1CC(=O)Nc1ccc(C(F)(F)F)cc1Cl [Example 101, N-(2-chloro-4-(trifluoromethyl)phenyl)-2-(5-ethyl-6-(4-(5-hydroxy-6-methylpyrimidine-4-carbonyl)piperazin-1-yl)-7-oxo-2-(1H-pyrrolo[2,3-b]pyridin-5-yl)-[1,2,4]triazolo[1,5-a]pyrimidin-4(7H) -yl)acetamide] | < 1 nM | 1 to 100 nM | 1 to 100 nM

Second part, led by results:

Row | IC50 (recombinant human WRN) | IC50 (SW48 cells) | Compound | IC50 (RL95-2 cells)
7 | 1 to 100 nM | 1 to 100 nM | CCc1c(N2CCN(C(=O)c3ncnc(C)c3O)CC2)c(=O)n2nc(C3=CC4CC(OC)CC4C3)nc2n1CC(=O)Nc1ccc(C(F)(F)F)cc1Cl (stereo not drawn) [Example 163, N-(2-chloro-4-(trifluoromethyl)phenyl)-2-(5-ethyl-6-(4-(5-hydroxy-6-methylpyrimidine-4-carbonyl)piperazin-1-yl)-2-(5-methoxy-1,3a,4,5,6,6a-hexahydropentalen-2-yl)-7-oxo-[1,2,4]triazolo[1,5-a]pyrimidin-4(7H)-yl)acetamide] | 1 to 100 nM
8 | 1 to 100 nM | 1 to 100 nM | CCc1c(N2CCN(C(=O)c3ncnc(C)c3O)CC2)c(=O)n2nc(-c3ccc4nc(N)oc4c3)nc2n1CC(=O)Nc1ccc(C(F)(F)F)cc1Cl [Example 140, 2-(2-(2-aminobenzo[d]oxazol-6-yl)-5-ethyl-6-(4-(5-hydroxy-6-methylpyrimidine-4-carbonyl)piperazin-1-yl)-7-oxo-[1,2,4]triazolo[1,5-a]pyrimidin-4(7H)-yl)-N-(2-chloro-4-(trifluoromethyl)phenyl)acetamide] | 1 to 100 nM
9 | 1 to 100 nM | 1 to 100 nM | CCc1c(N2CCN(C(=O)c3ncnc(C)c3O)CC2)c(=O)n2nc(-c3cc4c(s3)CCNC4)nc2n1CC(=O)Nc1ccc(C(F)(F)F)cc1Cl [Example 134, N-(2-chloro-4-(trifluoromethyl)phenyl)-2-(5-ethyl-6-(4-(5-hydroxy-6-methylpyrimidine-4-carbonyl)piperazin-1-yl)-7-oxo-2-(4,5,6,7-tetrahydrothieno[3,2-c]pyridin-2-yl)-[1,2,4]triazolo[1,5-a]pyrimidin-4(7H)-yl)acetamide] | 1 to 100 nM
10 | 1 to 100 nM | 1 to 100 nM | CCc1c(N2CCN(C(=O)c3ncnc(C)c3O)CC2)c(=O)n2nc(C3=CCC4(CC3)CC4)nc2n1CC(=O)Nc1ccc(S(F)(F)(F)(F)F)cc1 [Example 120, 2-(5-ethyl-6-(4-(5-hydroxy-6-methylpyrimidine-4-carbonyl)piperazin-1-yl)-7-oxo-2-(spiro[2.5]oct-5-en-6-yl)-[1,2,4]triazolo[1,5-a]pyrimidin-4(7H)-yl)-N-(4-(pentafluoro-λ6-sulfaneyl)phenyl)ace tamide] | 1 to 100 nM
11 | 1 to 100 nM | 1 to 100 nM | CCc1c(N2CCN(C(=O)c3ncnc(C)c3O)CC2)c(=O)n2nc(-c3ccc4c(c3)NCCO4)nc2n1CC(=O)Nc1ccc(C(F)(F)F)cc1Cl [Example 157, N-(2-chloro-4-(trifluoromethyl)phenyl)-2-(2-(3,4-dihydro-2H-benzo[b][1,4]oxazin-6-yl)-5-ethyl-6-(4-(5-hydroxy-6-methylpyrimidine-4-carbonyl)piperazin-1-yl)-7-oxo-[1,2,4]triazolo[1,5-a]pyrimidin-4(7H)-yl)acetamide] | 1 to 100 nM
12 | 1 to 100 nM | 1 to 100 nM | CCc1c(N2CCN(C(=O)c3ncnc(C)c3O)CC2)c(=O)n2nc(-c3ccc4cc[nH]c4c3)nc2n1CC(=O)Nc1ccc(C(F)(F)F)cc1Cl [Example 123, N-(2-chloro-4-(trifluoromethyl)phenyl)-2-(5-ethyl-6-(4-(5-hydroxy-6-methylpyrimidine-4-carbonyl)piperazin-1-yl)-2-(1H-indo1-6-yl)-7-oxo-[1,2,4]triazolo[1,5-a]pyrimidin-4(7H)-yl)acetamide] | 1 to 100 nM
13 | 1 to 100 nM | 1 to 100 nM | CCc1c(N2CCN(C(=O)c3ncnc(C)c3O)CC2)c(=O)n2nc(-c3cnc4c(c3)CCO4)nc2n1CC(=O)Nc1ccc(C(F)(F)F)cc1Cl [Example 162, N-(2-chloro-4-(trifluoromethyl)phenyl)-2-(2-(2,3-dihydrofuro[2,3-b]pyridin-5-yl)-5-ethyl-6-(4-(5-hydroxy-6-methylpyrimidine-4-carbonyl)piperazin-1-yl)-7-oxo-[1,2,4]triazolo[1,5-a]pyrimidin-4 (7H)-yl)acetamide] | 1 to 100 nM
